Laboratory results as given in patent US6790447B1, “Peptides for treatment of autoimmune diseases” (priority 1994, dated 2004).

Key:
uveitis = test: Uveitogenicity after immunization with the peptides; assay type: in vivo; details: after immunization of objects with the peptides
Source text: Of these peptides B27PD and PDSAg are uveitogenic, i.e., after immunization of objects with the peptides they develop uveitis.

IRBP induced uveitis = test: IRBP-induced uveitis after oral administration of antigens (oral tolerance); assay type: in vivo, Lewis rats; details: induction with IRBP, oral feeding; for clinical symptoms / clinical score for uveitis reduced to: compared to maximal disease in PBS-fed group
Source text: (§1) Due to animal protection laws, the experiments were terminated three to four days after the last animals in the positive control groups diseased.
(§2) The histological evaluation consists of a grading of inflammatory signs in the tissue and destruction of the retina, the clinical grading refers to inflammatory signs of the conjunctiva and the anterior segment of the eye, which can be observed readily and are not necessarily correlated with the visual acuity.

[1] = test system: S-antigen-induced uveitis; test: S-antigen-induced uveitis after oral administration of antigens (oral tolerance); assay type: in vivo, Lewis rats; details: induction with S-antigen; for clinical symptoms reduced to: oral administration, compared to group fed control protein (ovalbumin), peptides 200 μg, proteins 1 mg, three doses every other day; for uveitis reduced by (histological evaluation): oral feeding, compared to ovalbumin fed control groups
Source text: as §1, §2

Row | Substance | uveitogenic properties (uveitis) | clinical symptoms / clinical score for uveitis reduced to (IRBP induced uveitis) | clinical symptoms reduced to [1] | uveitis reduced by (histological evaluation) [1] | therapeutic properties (IRBP induced uveitis)
1 | A-L-N-E-D-L-R-S-W-T-A-A-D-T (ALNEDLRSWTAADT) [B7PD, an irrelevant control peptide] | does not have any uveitogenic properties |  |  |  | 
2 | A-L-N-E-D-L-S-S-W-T-A-A-D-T (ALNEDLSSWTAADT) [B27PD, 14 mer peptide of the invention] | uveitogenic | 75% | 16% | 57% | 
3 | F-L-G-E-L-T-S-S-E-V-A-T-E-V (FLGELTSSEVATEV) [PDSAg] | uveitogenic |  | 9% | 14% | no therapeutic properties
4 | IRBP: interphotoreceptor-retinoid-binding protein, retinal protein |  | 25% |  |  | 
